Data: patent publication EP4722212A1, “NOVEL COMPOUND FOR INHIBITING PROTEIN KINASES AND PHARMACEUTICAL COMPOSITION COMPRISING SAME” (Magicbullettherapeutics Co., Ltd., priority 2023, dated 2024)
Read-outs that look alike come from different tables or passages of the source.

Assays:
Assay in all cases: Kinase panel
Assay type in all cases: biochemical
BLK = BLK (Homo sapiens, UniProt P51451); details: read-out: residual enzyme activity
In short: (§1)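 Each listed kinase was assayed biochemically in the presence of 1 µM compound, and the calculated value is residual enzyme activity. Identification criterion was inhibition reaching 60% or more.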

CAMK2A = CAMK2A (Homo sapiens, UniProt Q9UQM7); details: read-out: residual enzyme activity
In short: as §1

CDK14/CYCLIN Y (PFTK1) = CDK14/CYCLIN Y (PFTK1) (Homo sapiens, UniProt O94921); details: read-out: residual enzyme activity
In short: as §1

CDK2/CYCLIN E2 = CDK2/CYCLIN E2 (Homo sapiens, UniProt P24941); details: CDK2/cyclin E2, 1 µM; read-out: residual enzyme activity
In short: as §1

CDK4/CYCLIN D1 = CDK4/CYCLIN D1 (Homo sapiens, UniProt P11802); details: CDK4/cyclin D1, 1 µM; read-out: residual enzyme activity
Sequence of CDK4/CYCLIN D1 (P11802 whole entry, species assumed): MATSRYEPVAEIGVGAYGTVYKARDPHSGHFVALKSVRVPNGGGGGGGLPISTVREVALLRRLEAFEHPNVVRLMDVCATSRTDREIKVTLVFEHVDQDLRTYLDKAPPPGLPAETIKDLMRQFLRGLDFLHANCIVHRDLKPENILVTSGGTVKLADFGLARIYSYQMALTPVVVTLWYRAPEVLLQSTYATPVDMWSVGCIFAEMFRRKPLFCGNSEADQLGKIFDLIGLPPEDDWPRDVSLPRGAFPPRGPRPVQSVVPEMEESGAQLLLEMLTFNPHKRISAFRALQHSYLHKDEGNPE
Sequence of CDK4/CYCLIN D1 (P24385 whole entry partner, species assumed): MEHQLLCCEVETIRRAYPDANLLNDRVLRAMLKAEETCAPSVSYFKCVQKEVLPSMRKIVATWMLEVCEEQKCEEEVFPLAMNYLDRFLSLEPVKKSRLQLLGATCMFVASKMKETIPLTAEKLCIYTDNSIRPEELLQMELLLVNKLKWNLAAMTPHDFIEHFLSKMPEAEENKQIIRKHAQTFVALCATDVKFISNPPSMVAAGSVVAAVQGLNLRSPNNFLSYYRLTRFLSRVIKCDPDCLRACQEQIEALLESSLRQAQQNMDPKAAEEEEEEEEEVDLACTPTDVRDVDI
In short: as §1

CDK7/CYCLIN H = CDK7/CYCLIN H (Homo sapiens, UniProt P50613); details: read-out: residual enzyme activity
Sequence of CDK7/CYCLIN H (P50613 whole entry, species assumed): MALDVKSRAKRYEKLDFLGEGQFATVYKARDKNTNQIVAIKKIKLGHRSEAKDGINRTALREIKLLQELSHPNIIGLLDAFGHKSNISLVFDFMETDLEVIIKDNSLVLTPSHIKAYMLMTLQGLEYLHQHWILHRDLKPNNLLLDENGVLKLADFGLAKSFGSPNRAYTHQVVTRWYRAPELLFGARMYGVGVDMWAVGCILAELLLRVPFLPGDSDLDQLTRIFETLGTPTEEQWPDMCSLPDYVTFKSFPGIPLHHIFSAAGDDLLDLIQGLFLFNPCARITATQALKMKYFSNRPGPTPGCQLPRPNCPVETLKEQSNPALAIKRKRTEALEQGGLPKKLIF
Sequence of CDK7/CYCLIN H (P51946 whole entry partner, species assumed): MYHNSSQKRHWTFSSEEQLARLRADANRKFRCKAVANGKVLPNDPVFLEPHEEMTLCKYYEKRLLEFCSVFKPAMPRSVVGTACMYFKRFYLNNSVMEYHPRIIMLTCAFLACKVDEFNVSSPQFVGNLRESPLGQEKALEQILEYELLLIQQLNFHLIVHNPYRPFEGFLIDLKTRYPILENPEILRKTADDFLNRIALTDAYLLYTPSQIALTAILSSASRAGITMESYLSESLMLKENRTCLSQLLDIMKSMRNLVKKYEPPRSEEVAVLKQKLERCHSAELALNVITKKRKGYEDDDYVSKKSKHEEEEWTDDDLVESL
In short: as §1

CHK1 = CHK1 (Homo sapiens, UniProt O14757); details: CHK1, 1 µM; read-out: residual enzyme activity
In short: as §1

CK1A1 = CK1A1 (Homo sapiens, UniProt P48729); details: read-out: residual enzyme activity
In short: as §1

CK1A1L = CK1A1L (Homo sapiens, UniProt Q8N752); details: read-out: residual enzyme activity
In short: as §1

CLK1 = CLK1 (Homo sapiens, UniProt P49759); details: CLK1, 1 µM; read-out: residual enzyme activity
In short: as §1

DCAMKL2 = DCAMKL2 (Homo sapiens, UniProt Q8N568); details: DCAMKL2, 1 µM; read-out: residual enzyme activity
In short: as §1

EPHA3 = EPHA3 (Homo sapiens, UniProt P29320); details: EPHA3, 1 µM; read-out: residual enzyme activity
In short: as §1

EPHAS = EPHAS (Homo sapiens, UniProt P54756); details: read-out: residual enzyme activity
In short: as §1

ERK1 = ERK1 (Homo sapiens, UniProt P27361); details: ERK1, 1 µM; read-out: residual enzyme activity
In short: as §1

FER = FER (Homo sapiens, UniProt P16591); details: read-out: residual enzyme activity
In short: as §1

FLT1/VEGFR1 = FLT1/VEGFR1 (Homo sapiens, UniProt P17948); details: FLT1/VEGFR1, 1 µM; read-out: residual enzyme activity
In short: as §1

GCK/MAP4K2 = GCK/MAP4K2 (Homo sapiens, UniProt Q12851); details: GCK/MAP4K2, 1 µM; read-out: residual enzyme activity
In short: as §1

JNK2 = JNK2 (Homo sapiens, UniProt P45984); details: read-out: residual enzyme activity
In short: as §1

MEK3 = MEK3 (Homo sapiens, UniProt P46734); details: MEK3, 1 µM; read-out: residual enzyme activity
In short: as §1

MEKK1 = MEKK1 (Homo sapiens, UniProt Q13233); details: MEKK1, 1 µM; read-out: residual enzyme activity
In short: as §1

MLK2/MAP3K10 = MLK2/MAP3K10 (Homo sapiens, UniProt Q02779); details: MLK2/MAP3K10, 1 µM; read-out: residual enzyme activity
Sequence of MLK2/MAP3K10 (Q02779 whole entry): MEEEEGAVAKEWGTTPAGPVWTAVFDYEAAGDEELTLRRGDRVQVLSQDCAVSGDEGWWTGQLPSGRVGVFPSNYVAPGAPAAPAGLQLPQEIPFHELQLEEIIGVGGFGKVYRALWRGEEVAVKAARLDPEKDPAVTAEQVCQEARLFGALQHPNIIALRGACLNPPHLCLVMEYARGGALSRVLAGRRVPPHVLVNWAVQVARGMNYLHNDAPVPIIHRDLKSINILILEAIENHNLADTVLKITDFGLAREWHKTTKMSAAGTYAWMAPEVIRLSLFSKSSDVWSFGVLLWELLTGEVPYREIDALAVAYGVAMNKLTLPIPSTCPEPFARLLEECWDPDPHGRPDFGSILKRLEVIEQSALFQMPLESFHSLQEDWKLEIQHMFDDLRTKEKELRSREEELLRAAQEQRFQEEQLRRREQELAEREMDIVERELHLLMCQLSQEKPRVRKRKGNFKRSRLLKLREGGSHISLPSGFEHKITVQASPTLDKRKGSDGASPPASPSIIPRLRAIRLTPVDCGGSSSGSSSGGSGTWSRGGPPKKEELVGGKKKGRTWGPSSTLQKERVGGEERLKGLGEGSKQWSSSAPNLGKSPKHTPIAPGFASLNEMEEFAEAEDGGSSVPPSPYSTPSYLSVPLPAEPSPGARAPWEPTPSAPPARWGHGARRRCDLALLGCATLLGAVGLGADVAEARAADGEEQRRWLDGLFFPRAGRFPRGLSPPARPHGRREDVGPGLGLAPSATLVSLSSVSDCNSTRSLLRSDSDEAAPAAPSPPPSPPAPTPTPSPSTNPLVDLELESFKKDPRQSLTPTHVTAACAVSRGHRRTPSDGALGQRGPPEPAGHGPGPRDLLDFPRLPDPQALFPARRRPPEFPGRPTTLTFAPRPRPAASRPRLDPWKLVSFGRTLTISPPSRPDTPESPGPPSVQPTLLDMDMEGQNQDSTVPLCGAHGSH
In short: as §1

MST1/STK4 = MST1/STK4 (Homo sapiens, UniProt Q13043); details: MST1/STK4, 1 µM; read-out: residual enzyme activity
In short: as §1

NEK1 = NEK1 (Homo sapiens, UniProt Q96PY6); details: NEK1, 1 µM; read-out: residual enzyme activity
Sequence of NEK1 (Q96PY6 whole entry, species assumed): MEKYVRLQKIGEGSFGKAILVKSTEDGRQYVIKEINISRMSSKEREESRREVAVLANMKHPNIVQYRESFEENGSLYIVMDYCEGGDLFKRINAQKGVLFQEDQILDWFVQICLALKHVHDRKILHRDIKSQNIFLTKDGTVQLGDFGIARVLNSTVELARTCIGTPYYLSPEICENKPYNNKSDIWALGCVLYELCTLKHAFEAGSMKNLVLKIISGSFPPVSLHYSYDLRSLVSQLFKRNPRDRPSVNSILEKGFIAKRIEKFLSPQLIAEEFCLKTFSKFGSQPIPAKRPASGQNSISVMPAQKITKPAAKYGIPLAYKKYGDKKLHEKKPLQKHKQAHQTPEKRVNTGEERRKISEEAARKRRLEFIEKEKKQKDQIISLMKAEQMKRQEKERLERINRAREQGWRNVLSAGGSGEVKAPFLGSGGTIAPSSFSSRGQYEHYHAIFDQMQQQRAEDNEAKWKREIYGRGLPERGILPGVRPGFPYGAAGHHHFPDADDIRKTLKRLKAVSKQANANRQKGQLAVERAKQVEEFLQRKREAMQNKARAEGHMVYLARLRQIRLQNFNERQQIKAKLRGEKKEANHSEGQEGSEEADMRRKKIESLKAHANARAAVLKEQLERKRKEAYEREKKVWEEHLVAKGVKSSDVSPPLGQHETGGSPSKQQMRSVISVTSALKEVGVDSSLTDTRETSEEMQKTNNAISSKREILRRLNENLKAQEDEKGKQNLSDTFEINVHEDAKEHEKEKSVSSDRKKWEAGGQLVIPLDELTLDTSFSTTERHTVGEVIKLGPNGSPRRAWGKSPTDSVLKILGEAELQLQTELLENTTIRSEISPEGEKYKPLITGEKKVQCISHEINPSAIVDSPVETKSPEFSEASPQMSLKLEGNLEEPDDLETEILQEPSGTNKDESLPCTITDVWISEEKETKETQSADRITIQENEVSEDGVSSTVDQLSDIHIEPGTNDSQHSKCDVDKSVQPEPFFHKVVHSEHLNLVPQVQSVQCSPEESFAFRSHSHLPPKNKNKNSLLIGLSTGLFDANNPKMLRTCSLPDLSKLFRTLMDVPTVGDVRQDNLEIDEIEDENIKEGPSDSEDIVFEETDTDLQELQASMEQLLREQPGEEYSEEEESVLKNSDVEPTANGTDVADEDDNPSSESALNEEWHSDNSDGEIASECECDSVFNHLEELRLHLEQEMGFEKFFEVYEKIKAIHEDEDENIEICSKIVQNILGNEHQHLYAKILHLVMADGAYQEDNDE
In short: as §1

PKCNU/PRKD3 = PKCNU/PRKD3 (Homo sapiens, UniProt O94806); details: PKCnu/PRKD3, 1 µM; read-out: residual enzyme activity
Sequence of PKCNU/PRKD3 (O94806 whole entry): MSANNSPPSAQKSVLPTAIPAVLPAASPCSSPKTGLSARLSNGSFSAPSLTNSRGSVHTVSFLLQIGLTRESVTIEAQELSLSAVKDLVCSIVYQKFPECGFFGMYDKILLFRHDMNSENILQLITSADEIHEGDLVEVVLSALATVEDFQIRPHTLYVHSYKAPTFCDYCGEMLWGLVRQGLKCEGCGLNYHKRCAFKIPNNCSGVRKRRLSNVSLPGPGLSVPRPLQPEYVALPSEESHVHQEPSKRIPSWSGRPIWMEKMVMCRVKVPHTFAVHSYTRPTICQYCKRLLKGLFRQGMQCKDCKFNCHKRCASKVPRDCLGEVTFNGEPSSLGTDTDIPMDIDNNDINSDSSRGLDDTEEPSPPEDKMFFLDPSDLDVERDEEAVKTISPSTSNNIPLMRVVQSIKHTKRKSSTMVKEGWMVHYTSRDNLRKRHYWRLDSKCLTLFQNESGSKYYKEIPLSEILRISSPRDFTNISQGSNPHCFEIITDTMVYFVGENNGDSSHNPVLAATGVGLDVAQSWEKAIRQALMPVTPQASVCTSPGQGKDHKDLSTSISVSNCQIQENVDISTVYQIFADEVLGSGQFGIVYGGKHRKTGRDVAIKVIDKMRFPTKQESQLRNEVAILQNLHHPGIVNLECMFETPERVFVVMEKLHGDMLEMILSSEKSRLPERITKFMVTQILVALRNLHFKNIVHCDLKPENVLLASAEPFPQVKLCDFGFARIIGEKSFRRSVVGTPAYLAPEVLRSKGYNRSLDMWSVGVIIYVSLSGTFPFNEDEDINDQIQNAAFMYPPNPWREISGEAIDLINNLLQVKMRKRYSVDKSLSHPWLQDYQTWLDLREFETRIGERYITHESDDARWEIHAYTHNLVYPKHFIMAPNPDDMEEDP
In short: as §1

PLK4/SAK = PLK4/SAK (Homo sapiens, UniProt O00444); details: read-out: residual enzyme activity
In short: as §1

RET = RET (Homo sapiens, UniProt P07949); details: read-out: residual enzyme activity
In short: as §1

RIPK2 = RIPK2 (Homo sapiens, UniProt O43353); details: RIPK2, 1 µM; read-out: residual enzyme activity
In short: as §1

RSK2 = RSK2 (Homo sapiens, UniProt P51812); details: RSK2, 1 µM; read-out: residual enzyme activity
In short: as §1

RSK4 = RSK4 (Homo sapiens, UniProt Q9UK32); details: RSK4, 1 µM; read-out: residual enzyme activity
In short: as §1

STK38/NDR1 = STK38/NDR1 (Homo sapiens, UniProt Q15208); details: STK38/NDR1, 1 µM; read-out: residual enzyme activity
In short: as §1

STK39/STLK3 = STK39/STLK3 (Homo sapiens, UniProt Q9UEW8); details: STK39/STLK3, 1 µM; read-out: residual enzyme activity
In short: as §1

TESK2 = TESK2 (Homo sapiens, UniProt Q96S53); details: TESK2, 1 µM; read-out: residual enzyme activity
In short: as §1

TRKC = TRKC (Homo sapiens, UniProt Q16288); details: read-out: residual enzyme activity
In short: as §1

Sequence of BLK (P51451 whole entry): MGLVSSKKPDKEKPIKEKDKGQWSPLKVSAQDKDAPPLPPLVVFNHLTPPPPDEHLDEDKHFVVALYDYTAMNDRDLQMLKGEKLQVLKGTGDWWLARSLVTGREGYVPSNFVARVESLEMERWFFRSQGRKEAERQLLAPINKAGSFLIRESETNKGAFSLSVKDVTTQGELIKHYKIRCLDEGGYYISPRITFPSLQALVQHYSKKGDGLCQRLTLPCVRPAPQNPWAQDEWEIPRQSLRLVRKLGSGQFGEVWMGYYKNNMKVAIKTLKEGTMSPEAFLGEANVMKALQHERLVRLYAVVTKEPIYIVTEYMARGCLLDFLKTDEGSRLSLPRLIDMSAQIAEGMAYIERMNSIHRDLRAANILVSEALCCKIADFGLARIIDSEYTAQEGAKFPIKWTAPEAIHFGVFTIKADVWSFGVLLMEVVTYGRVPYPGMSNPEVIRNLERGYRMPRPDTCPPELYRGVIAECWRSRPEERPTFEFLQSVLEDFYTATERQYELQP

SMILES	remaining activity at 1 µM (BLK)	remaining activity at 1 µM (CDK14/CYCLIN Y (PFTK1))	remaining activity at 1 µM (CDK2/CYCLIN E2)	remaining activity at 1 µM (CDK4/CYCLIN D1)	remaining activity at 1 µM (CDK7/CYCLIN H)	remaining activity at 1 µM (CHK1)	remaining activity at 1 µM (CLK1)	remaining activity at 1 µM (DCAMKL2)	remaining activity at 1 µM (EPHA3)	remaining activity at 1 µM (ERK1)	remaining activity at 1 µM (FER)	remaining activity at 1 µM (FLT1/VEGFR1)	remaining activity at 1 µM (GCK/MAP4K2)	remaining activity at 1 µM (MEK3)	remaining activity at 1 µM (MEKK1)	remaining activity at 1 µM (MLK2/MAP3K10)	remaining activity at 1 µM (MST1/STK4)	remaining activity at 1 µM (NEK1)	remaining activity at 1 µM (PKCNU/PRKD3)	remaining activity at 1 µM (PLK4/SAK)	other results
Cc1cn(-c2cc(C(=O)Nc3ccc(C)c(N4Cc5cnc(NC6CC6)nc5C5(CC5)C4=O)c3)cc(C(F)(F)F)c2)cn1 [Compound 8, N-(3-(2'-(cyclopropylamino)-7'-oxo-5'H-spiro[cyclopropane-1,8'-pyrido[4,3-d]pyrimidine]-6'(7'H)-yl)-4-methylphenyl)-3-(4-methyl-1H-imidazol-1-yl)-5-(trifluoromethyl)benzamide]	≤ 40%	> 40%	> 40%	> 40%	> 40%	> 40%	> 40%	> 40%	≤ 40%	> 40%	≤ 40%	≤ 40%	≤ 40%	> 40%	> 40%	> 40%	> 40%	> 40%	> 40%	> 40%	remaining activity at 1 µM (CAMK2A; CAMK2A): > 40%; remaining activity at 1 µM (CK1A1; CK1A1, 1 µM): > 40%; remaining activity at 1 µM (CK1A1L; CK1A1L): > 40%; remaining activity at 1 µM (EPHAS; EPHAS (row 107), 1 µM): ≤ 40%; remaining activity at 1 µM (JNK2; JNK2, 1 µM): > 40%; remaining activity at 1 µM (RET): ≤ 40%; remaining activity at 1 µM (RIPK2): > 40%; remaining activity at 1 µM (RSK2): > 40%; remaining activity at 1 µM (RSK4): > 40%; remaining activity at 1 µM (STK38/NDR1): > 40%; remaining activity at 1 µM (STK39/STLK3): > 40%; remaining activity at 1 µM (TESK2): ≤ 40%; remaining activity at 1 µM (TRKC): ≤ 40%
Cc1ccc(Nc2ncc3c(n2)C2(CC2)C(=O)N(c2cc(NC(=O)c4cccc(C(F)(F)F)c4)ccc2C)C3)cn1 [Compound 51, N-(4-methyl-3-(2'-((6-methylpyridin-3-yl)amino)-7'-oxo-5'H-spiro[cyclopropane-1,8'-pyrido[4,3-d]pyrimidine]-6'(7'H)-yl)phenyl)-3-(trifluoromethyl)benzamide]	≤ 40%	> 40%	> 40%	> 40%	> 40%	> 40%	> 40%	> 40%	≤ 40%	> 40%	≤ 40%	≤ 40%	≤ 40%	> 40%	> 40%	≤ 40%	> 40%	> 40%	> 40%	> 40%	remaining activity at 1 µM (CAMK2A; CAMK2a): > 40%; remaining activity at 1 µM (CK1A1; CKlal, 1 µM): > 40%; remaining activity at 1 µM (CK1A1L; CKlalL): > 40%; remaining activity at 1 µM (EPHAS; EPHA5, 1 µM): ≤ 40%; remaining activity at 1 µM (JNK2; INK2, 1 µM): ≤ 40%; remaining activity at 1 µM (RET): ≤ 40%; remaining activity at 1 µM (RIPK2): > 40%; remaining activity at 1 µM (RSK2): > 40%; remaining activity at 1 µM (RSK4): > 40%; remaining activity at 1 µM (STK38/NDR1): > 40%; remaining activity at 1 µM (STK39/STLK3): > 40%; remaining activity at 1 µM (TESK2): ≤ 40%; remaining activity at 1 µM (TRKC): ≤ 40%
